Patent US12624034B2, “Non-covalent modifiers of AKT1 and uses thereof” (Terremoto Biosciences, Inc., priority 2023, dated 2026)
Where two headings read alike, the source gives them in different places.

Tests used:
[1] = target: T1, AKT2 (Homo sapiens, UniProt P31751); assay: Live cell AKT2 target engagement by NanoBRET competitive probe displacement in HEK293 cells; assay type: binding; conditions: 2 h at 37° C., read-out: AKT2 IC50
T1 construct: expressed in transfected cells; host or cells: HEK293

[2] = target: T2, AKT1 WT (Homo sapiens, UniProt P31749); assay: Live cell AKT1 WT target engagement by NanoBRET competitive probe displacement in HEK293 cells; assay type: binding; conditions: 2 h at 37° C., read-out: AKT1 WT IC50
T2 construct: expressed in transfected cells; host or cells: HEK293

[3] = target: T3, AKT1 E17K (Homo sapiens, UniProt P31749, E17K); assay: Live cell AKT1 E17K target engagement by NanoBRET competitive probe displacement in HEK293 cells; assay type: binding; conditions: 2 h at 37° C.
T3 construct: expressed in transfected cells; host or cells: HEK293
How it was run: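 Tracer displacement measured in live HEK293 cells carrying NanoLuciferase-fused kinase. Compound competes with a fluorescently labelled ATP-competitive tracer used near its EC50 over 2 h at 37° C, and IC50 values come from Hill fitting of the 600/460 nm BRET signal.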

[4] = tested on: LAPC4 prostate cancer cells, which express the AKT1 E17K allele; assay: Antiproliferative effects in LAPC4 cells (CellTiter Glo, 72 h); assay type: cell-based; conditions: read-out: LAPC4 proliferation IC50
How it was run: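 Growth inhibition is gauged by intracellular ATP content, measured with CellTiter Glo 72 h after compound addition to 1,000 seeded cells per well. IC50 derives from a Hill equation fit.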

[5] = NanoBRET live cell target engagement, HEK293 cells
[6] = NanoBRET competitive probe displacement, live HEK293 cells

T3 sequence (P31749 whole entry E17K): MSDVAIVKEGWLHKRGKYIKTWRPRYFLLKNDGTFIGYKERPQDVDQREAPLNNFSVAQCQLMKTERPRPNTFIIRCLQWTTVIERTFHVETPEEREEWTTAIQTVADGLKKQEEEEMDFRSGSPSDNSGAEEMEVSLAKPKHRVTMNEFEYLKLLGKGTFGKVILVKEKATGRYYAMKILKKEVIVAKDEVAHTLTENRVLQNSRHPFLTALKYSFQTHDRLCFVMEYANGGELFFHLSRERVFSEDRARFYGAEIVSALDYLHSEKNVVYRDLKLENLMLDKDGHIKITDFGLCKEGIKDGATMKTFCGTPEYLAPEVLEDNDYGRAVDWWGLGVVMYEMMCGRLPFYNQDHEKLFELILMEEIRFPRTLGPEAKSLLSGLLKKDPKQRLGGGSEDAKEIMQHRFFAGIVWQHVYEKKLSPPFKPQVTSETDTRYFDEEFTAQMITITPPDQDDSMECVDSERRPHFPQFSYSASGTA
T1 sequence (P31751 whole entry): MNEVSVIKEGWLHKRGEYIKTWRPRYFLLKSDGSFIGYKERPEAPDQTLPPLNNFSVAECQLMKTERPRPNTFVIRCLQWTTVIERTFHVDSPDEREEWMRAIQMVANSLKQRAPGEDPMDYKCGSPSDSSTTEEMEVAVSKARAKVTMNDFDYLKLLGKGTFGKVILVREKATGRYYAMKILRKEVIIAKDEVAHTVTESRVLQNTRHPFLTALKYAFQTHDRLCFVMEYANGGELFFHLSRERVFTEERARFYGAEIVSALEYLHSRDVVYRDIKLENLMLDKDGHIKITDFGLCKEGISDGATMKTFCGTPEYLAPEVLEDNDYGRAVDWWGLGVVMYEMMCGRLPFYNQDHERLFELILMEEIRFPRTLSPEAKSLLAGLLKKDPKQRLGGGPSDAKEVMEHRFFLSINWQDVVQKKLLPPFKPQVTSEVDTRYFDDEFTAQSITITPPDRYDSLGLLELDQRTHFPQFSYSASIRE
T2 sequence (P31749 whole entry): as the sequence (P31749 whole entry E17K) above, with K17E counted along it

Structure (SMILES)	IC50 [1, 5]	IC50 [2, 5]	IC50 [3, 5]	IC50 [4]	IC50 [1, 6]	IC50 [2, 6]	IC50 [3, 6]	IC50 ([4]; Homo sapiens, LAPC4, 72 h)
Nc1ncccc1-c1nc2ccc(-n3nccn3)nc2n1-c1ccc2c(c1)CC(F)[C@@H]2NC(=O)c1ccc(C(F)F)nc1 (some centres unmarked) [Compound 349]	222 nM	10.3 nM	49.6 nM	408 nM				
Nc1ncccc1-c1nc2ccc(-n3cccn3)nc2n1-c1ccc2c(c1)CC[C@@H]2NC(=O)c1cnns1 [Compound 399]					656 nM	15 nM	177 nM	2730 nM
Nc1ncccc1-c1nc2ccc(-n3cccn3)nc2n1-c1ccc2c(c1)CC[C@@H]2NC(=O)c1cc(O)c(O)cc1F [Compound 351, N-[(1S)-5-[2-(2-aminopyridin-3-yl)-5-(pyrazol-1-yl)imidazo[4,5-b]pyridin-3-yl]-2,3-dihydro-1H-inden-1-yl]-2-fluoro-4,5-dihydroxybenzamide]	497 nM	20.3 nM	82.5 nM					1140 nM
CCOC(=O)N1CCC(N[C@H]2CCc3cc(-n4c(-c5cccnc5N)nc5ccc(-n6cccn6)nc54)ccc32)CC1 [Compound 289]	2990 nM	69.9 nM	283 nM					4780 nM
Nc1ncccc1-c1nc2ccc(-n3cccn3)nc2n1-c1ccc2c(c1)CC[C@@H]2NC(=O)c1ccc2[nH]cnc2c1 [Compound 22, (S)—N-(5-(2-(2-aminopyridin-3-yl)-5-(1H-pyrazol-1-yl)-3H-imidazo[4,5-b]pyridin-3-yl)-2,3-dihydro-1H-inden-1-yl)-1H-benzo[d]imidazole-5-carboxamide]	67.6 nM	11.2 nM	31.9 nM					1260 nM
N#CC1(C(=O)N2CCC(N[C@H]3CCc4cc(-n5c(-c6cccnc6N)nc6ccc(-n7cccn7)nc65)ccc43)CC2)CC1 [Compound 369]	5590 nM	117 nM	> 1000 nM					> 10000 nM
Nc1ncccc1-c1nc2ccc(-n3cccn3)nc2n1-c1ccc2c(c1)CC[C@@H]2NC(=O)c1cc[nH]c(=O)c1 [Compound 318]	931 nM	149 nM	181 nM					3600 nM
Nc1ncccc1-c1nc2ccc(-n3cccn3)nc2n1-c1ccc2c(c1)CC[C@@H]2NC1CCN(c2ccccn2)CC1 [Compound 277]	486 nM	25.1 nM	365 nM					2440 nM
COc1ncc(C(=O)N[C@H]2CCc3cc(-n4c(-c5cccnc5N)nc5ccc(-n6cccn6)nc54)ccc32)cn1 [Compound 23, (S)—N-(5-(2-(2-aminopyridin-3-yl)-5-(1H-pyrazol-1-yl)-3H-imidazo[4,5-b]pyridin-3-yl)-2,3-dihydro-1H-inden-1-yl)-2-methoxypyrimidine-5-carboxamide]	46.6 nM	4.61 nM	390 nM					1200 nM
Nc1ncccc1-c1nc2ccc(-n3cccn3)nc2n1-c1ccc2c(c1)CC[C@@H]2NC1CCN(S(=O)(=O)C2CC2)CC1 [Compound 393]					3850 nM	125 nM	> 1000 nM	> 10000 nM
Nc1ncccc1-c1nc2ccc(-n3cccn3)nc2n1-c1ccc2c(c1)CC[C@@H]2NC1CCN(C(=O)c2ccccn2)CC1 [Compound 358]	4640 nM	208 nM	> 1000 nM					7530 nM
Nc1ncccc1-c1nc2ccc(-n3cccn3)nc2n1-c1ccc2c(c1)CC[C@@H]2NC(=O)c1ccc(-n2cccn2)nc1 [Compound 54, (S)—N-(5-(2-(2-aminopyridin-3-yl)-5-(1H-pyrazol-1-yl)-3H-imidazo[4,5-b]pyridin-3-yl)-2,3-dihydro-1H-inden-1-yl)-6-(1H-pyrazol-1-yl)nicotinamide]	10.7 nM	12 nM	17.4 nM					207 nM
Nc1ncccc1-c1nc2ccc(-n3cccn3)nc2n1-c1ccc2c(c1)CC[C@@H]2NC(=O)c1ccnc2c1OCCO2 [Compound 356]	1070 nM	52.3 nM	> 1000 nM					> 10000 nM
Nc1ncccc1-c1nc2ccc(-n3cccn3)nc2n1-c1ccc2c(c1)CC[C@@H]2NC(=O)c1ccnnc1 [Compound 33, (S)—N-(5-(2-(2-aminopyridin-3-yl)-5-(1H-pyrazol-1-yl)-3H-imidazo[4,5-b]pyridin-3-yl)-2,3-dihydro-1H-inden-1-yl)pyridazine-4-carboxamide]	321 nM	19.6 nM	> 1000 nM					3750 nM
